Assay results published in patent EP4497439A1, “COMPOUNDS FOR THE TREATMENT OR PREVENTION OF GOUT” (Universitat de les Illes Balears, priority 2023, dated 2025).
Read-outs that look alike come from different tables or passages of the source.

What was measured:
[1] = in vitro model of monosodium urate monohydrate (MSU) crystallization: naked eye observation and uric acid remaining in solution (phosphotungstic acid method); format: physicochemical; parameters: C100 (minimum concentration that totally prevented the formation of sodium urate crystals): unit not given here; conditions: for concentration capable of preventing the formation of MSU crystals (increased uric acid in solution) / C100 (minimum concentration that totally prevented the formation of sodium urate crystals): 5 days (120 h); for effect on the crystallization of MSU (formation of MSU crystals) / solubility of sodium urate in the tested fluid: compound 0.3 mM; for effect on the crystallization of MSU (formation of MSU crystals): uric acid 375 mg/L (2.23 mM), 6 days (144 h) plate images, 4 days uric acid in solution; for effect on the crystallization of MSU (formation of MSU crystals) / solubility of sodium urate in the tested fluid / C100 (minimum concentration that totally prevented the formation of sodium urate crystals): phosphate buffer 12 mM
[2] = doses of up to 400 mg three times a day; treatment of myopia; cited from earlier work
[3] = cited from earlier work
[4] = uric acid 375 mg/L, [Na+] 400 mM, pH 7.4

## Cn1c(=O)[nH]c(=O)c2[nH]cnc21 [3-methylxanthine]
[1]; [4]
  concentration capable of preventing the formation of MSU crystals (increased uric acid in solution): ≤ 50 µM
  solubility of sodium urate in the tested fluid: significantly increased
[1]; [Na+] 400 mM, pH 7.4
  effect on the crystallization of MSU (formation of MSU crystals): strong inhibition
[1]; same concentration
  effects relative to those of 7-methylxanthine: approximately half

## Cn1c(=O)[nH]c2[nH]c(=O)[nH]c(=O)c21 [7-methyluric acid]
[1]; [Na+] 400 mM, pH 7.4
  effect on the crystallization of MSU (formation of MSU crystals): strong inhibition
[1]; [4]
  solubility of sodium urate in the tested fluid: significantly increased
[1]; same concentration
  effects relative to those of 7-methylxanthine: like those of 7-methylxanthine

## Cn1cnc2[nH]c(=O)[nH]c(=O)c21 [7-methylxanthine]
[2]
  toxicity: do not present any toxicity
[1]; 50 µM, 100 µM and 150 µM, triplicates, uric acid 375 mg/L, [Na+] 400 mM, pH 7.4, 72 h
  formation of MSU crystals after 3 days: completely prevented
[1]; [4]
  concentration capable of preventing the formation of MSU crystals (increased uric acid in solution): ≤ 50 µM
  solubility of sodium urate in the tested fluid: significantly increased
[1]; [UA]0 275 mg/L, [Na+] 400 mM, pH 7.4
  C100 (minimum concentration that totally prevented the formation of sodium urate crystals): 10
[1]; [UA]0 300 mg/L, [Na+] 400 mM, pH 7.4
  C100 (minimum concentration that totally prevented the formation of sodium urate crystals): 20
[1]; [UA]0 340 mg/L, [Na+] 400 mM, pH 7.4
  C100 (minimum concentration that totally prevented the formation of sodium urate crystals): 40
[1]; [UA]0 375 mg/L, [Na+] 400 mM, pH 7.4
  C100 (minimum concentration that totally prevented the formation of sodium urate crystals): 60
[1]; [UA]0 400 mg/L, [Na+] 400 mM, pH 7.4
  C100 (minimum concentration that totally prevented the formation of sodium urate crystals): 80
[1]; [UA]0 425 mg/L, [Na+] 400 mM, pH 7.4
  C100 (minimum concentration that totally prevented the formation of sodium urate crystals): 100
[1]; [UA]0 450 mg/L, [Na+] 400 mM, pH 7.4
  C100 (minimum concentration that totally prevented the formation of sodium urate crystals): 125
[1]; [Na+] 400 mM, pH 7.4
  effect on the crystallization of MSU (formation of MSU crystals): strong inhibition
[1]; same concentration, 5 days, uric acid 375 mg/L
  crystallization inhibition compared with the other methylxanthine: significantly higher crystallization inhibition compared to 3-methylxanthine
[1]; times longer than 48h
  concentration that prevents the formation of sodium urate crystals for times longer than 48h: ~6 mg/L

## Cn1c(=O)c2c(ncn2C)n(C)c1=O [caffeine, 1,3,7-trimethylxanthine, reference compound]
[3]; administered orally
  share metabolized to 7-methylxanthine: 8%
[1]; [Na+] 400 mM, pH 7.4
  effect on the crystallization of MSU (formation of MSU crystals): does not affect

## Cn1cnc2c1c(=O)[nH]c(=O)n2C [theobromine, 3,7-dimethylxanthine, reference compound]
[3]; in vivo, po
  share metabolized to 7-methylxanthine: 30%
[1]; [Na+] 400 mM, pH 7.4
  effect on the crystallization of MSU (formation of MSU crystals): did not show any effect
